Source: US4151283A, “6-Methyl-and 1,6-dimethyl-8β-carbobenzyloxy-aminomethyl-10α-ergoline as inhibitors of prolactin secretion” (Societa' Farmaceutici Italia S.p.A., priority 1977, dated 1979)

Tests used:
prolactin (PRL) release [1] = details: cited from earlier work
prolactin (PRL) release [2] = details: cited from earlier work; remark: listed apart in the source
lactation [3] = details: in rats, literature (Fluckiger and Wagner 1968), in words; cited from earlier work
prolactin = details: literature (Brooks and Welsch 1974), in words; cited from earlier work
[4] = system: nidation (implantation sites); assay: Nidation inhibition in rats (anti-nidation activity); assay type: in vivo, rat (Sprague-Dowley strain); details: Rattus norvegicus, methane-sulphonic salt, given on 3rd day, approximate (.congruent.)
Procedure: Adult female rats, of the Sprague-Dowley strain, in proestrus were mated with fertile males and their vaginal smears were examined the next morning.
The presence of spermatozoa was considered evidence of impregnation and onset of pregnancy (day 1).
The compounds were administered orally or intraperitoneally as methane-sulphonic salts to groups of six to eight rats on the 3rd day.
On the 14th day the animals were sacrificed and the uterus was examined for the presence of implantation sites.
The absence of implantation sites was the criterion of activity.
Several doses were tested for the ED50 evaluation.

lactation [5] = assay: Lactation inhibition in rats (anti-lactation activity); assay type: in vivo; details: Rattus norvegicus, po, methane-sulfonic salt, 6th and 7th days, approximate (.congruent.); read-out: ED50, lactation inhibition (50% reduction of gain in weight of the litters)
Procedure: Adult pregnant female rats were individually caged about 6 days before parturition. The day after parturition (day 1), the number of pups was adjusted to eight. The gain in weight of the litters was measured daily.
The test compounds as methane-sulfonic salts were administered orally to groups of eight mother rats on the 6th and 7th days immediately after the weighing of the litters. The control mothers were treated with the vehicle alone.
The percentage of lactation inhibition was calculated from the mean gain in weight of the litters on the 7th and 8th days in comparison with the results for the 5th and 6th days.
No lactation inhibition was present on the 7th and 8th days in the vehicle-treated (control) group.
The doses capable of reducing to 50% the gain in weight of the litters (ED50) are reported below in Table II.

[6] = system: nidation (implantation sites); details: in rats, literature (Fluckiger and Wagner 1968), in words; cited from earlier work
puerperal lactation [7] = details: comparison drug, no own test described; cited from earlier work
Emetic activity in dogs = assay type: in vivo, dog (male beagle); details: dog, in vivo, methane-sulphonic salt, approximate (.congruent.), read-out: ED50, emetic activity; for TD50 at 2 h: iv, observed 2 hours; for TD50 at 6 h: po, observed 6 hours
Procedure: (§1) The emetic activity of the compounds was examined by intravenous and oral administration to male beagle dogs weighing 15-20 kg. The compounds were administered as the methane-sulphonic salts. […] Five to six animals per dose were employed for the ED50 evaluation.

emesis = assay: Emetic activity in dogs; assay type: in vivo, dog (male beagle); details: dogs, both routes of administration (Table III), in words
Procedure: as §1

puerperal lactation [8] = assay: Inhibition of puerperal lactation in women (clinical evaluation); assay type: in vivo, human (puerperal women)
Procedure: The invention concerns a novel method of inhibiting lactation in puerperal women by administering metergoline.
Metergoline was administered at a dose of 8 mg/day (4 mg at 0.800 and 4 mg at 2000) to these women: 10 women were treated with a placebo.

| Structure (SMILES) | ED50 ([4]; ip) | ED50 ([4]; po) | ED50 (lactation [5]) | TD50 at 2 h (Emetic activity in dogs) | TD50 at 6 h (Emetic activity in dogs) | emetic tolerability versus reference standard III (emesis) | further results |
| --- | --- | --- | --- | --- | --- | --- | --- |
| N[C@@H](Cc1c[nH]c2ccc(O)cc12)C(=O)O [5 hydroxytryptophan] |  |  |  |  |  |  | effect on PRL release in man (prolactin (PRL) release [1]): stimulates PRL release |
| NCCc1c[nH]c2ccc(O)cc12 [serotonin (5HT), 5-hydroxytryptamine] |  |  |  |  |  |  | effect on PRL release in animals (prolactin (PRL) release [2]): stimulates prolactin (PRL) release |
| CC(C)C[C@H]1C(=O)N2CCC[C@H]2[C@]2(O)O[C@](NC(=O)[C@@H]3C=C4c5cccc6[nH]c(Br)c(c56)C[C@H]4N(C)C3)(C(C)C)C(=O)N12 [Bromocriptine, 2-Br-α-ergocriptine, reference compound] | 16 to 32 mg/kg | 8 to 16 mg/kg | 8 to 16 mg/kg | ~0.007 mg/kg | < 0.03 mg/kg |  | anti-lactation activity (lactation [3]): well known both for its anti-nidation and anti-lactation activity in rats; anti-prolactin activity (prolactin): anti-prolactin activity; anti-nidation activity [6]: well known both for its anti-nidation and anti-lactation activity in rats; treatment period required (puerperal lactation [7]): 14 days |
| CN1C[C@H](CNC(=O)OCc2ccccc2)C[C@@H]2c3cccc4[nH]cc(c34)C[C@H]21 [1-Demethyl-metergoline, 6-Methyl-8β-carbobenzyloxy-aminomethyl-10α-ergoline] |  | 4 to 8 mg/kg | 4 to 8 mg/kg | 0.05 to 0.1 mg/kg | 0.2 to 0.4 mg/kg | clearly better tolerated than the reference standard III |  |
| CC[C@@H](CO)NC(=O)[C@@H]1C=C2c3cccc4c3c(cn4C)C[C@H]2N(C)C1 [methysergide] |  |  |  |  |  |  | effect on 5-hydroxytryptophan-stimulated PRL release (prolactin (PRL) release [1]; in man): partially inhibited |
| CN1C[C@H](CNC(=O)OCc2ccccc2)C[C@@H]2c3cccc4c3c(cn4C)C[C@H]21 [Metergoline, 1,6-Dimethyl-8β-carbobenzyloxy-aminomethyl-10α-ergoline] | 16 to 32 mg/kg | ~25 mg/kg | 12.5 to 25 mg/kg | > 8 mg/kg | 4 to 8 mg/kg | clearly better tolerated than the reference standard III | women in whom five days of treatment prevented or suppressed lactation (puerperal lactation [8]; 8 mg/day (4 mg twice), 5 days): 69 women; remaining women in whom a second course definitely inhibited every sign of mammary activity (puerperal lactation [8]; 8 mg/day, second course of 5 additional days): 9 women; cases in which the necessary treatment period is 5 days (puerperal lactation [8]; 5 days of treatment): 88.5%; treatment period necessary (puerperal lactation [8]; in 88.5% of cases): 5 days; tolerability / side-effects (puerperal lactation [8]; women, 8 mg/day, in words): perfectly tolerated and devoid of any side-effect |
